Results: patent publication US8710038B2, “Pyrazole kinase modulators and methods of use” (Exelixis, Inc., priority 2004, dated 2014)

Tests used:
EGFR = EGFR (Homo sapiens, UniProt P00533); experiment: EGFR kinase inhibition assay; format: biochemical
Protocol: (§1) Kinase activity and compound inhibition are investigated using one or more of the three assay formats described below. The ATP concentrations for each assay are selected to be close to the Michaelis-Menten constant (KM) for each individual kinase. Dose-response experiments are performed at 10 different inhibitor concentrations in a 384-well plate format. The data are fitted to four-parameter equation (2) below; where Y is the observed signal, X is the inhibitor concentration, Min is the background signal in the absence of enzyme (0% enzyme activity), Max is the signal in the absence of inhibitor (100% enzyme activity), IC50 is the inhibitor concentration at 50% enzyme inhibition and H represents the empirical Hill's slope to measure the cooperativity. Typically H is close to unity. Y=Min+(Max−Min)/(1+(X/IC50)^H) Equation (2) ^33P Phosphoryl Transfer Assay: […]
(§2) Greiner 384-well white, clear bottom, high binding plates are coated with 2 μg/well of protein or peptide substrate in a 50 μL volume overnight at ambient temperature. The coating buffer typically contains 40 μg/mL substrate, 22.5 mM Na2CO3, 27.5 mM NaHCO3, 150 mM NaCl and 3 mM NaN3. The coating solution is aspirated and the plates are washed once with 50 μL of assay buffer and padded dry. Subsequently compounds and enzymes are mixed with γ^33P-ATP (3.3 μCi/nmol) in a total volume of 20 uL in suitable assay buffers. The mixture is incubated at ambient temperature for 1.5-2.5 hrs and terminated by aspiration using a Molecular Devices EMBLA 96-head plate washer. The plates are subsequently washed 6-12 times with PBST or TBS buffer. Scintillation fluid (50 μl/well) is then added, the plates are sealed and activity assessed by liquid scintillation spectrometry using a Perkin Elmer MicroBeta TriLux.
(§3) In the LCCA assays, kinase activity is measured as the percent ATP consumed following the kinase reaction using luciferase-luciferin-coupled chemiluminescence. Greiner 384-well white, clear bottom, medium-binding plates are used for LCCA. Briefly, the kinase reaction is initiated by mixing compounds, ATP and kinase in a 20 uL volume. The mixture is incubated at ambient temperature for 2-4 hrs. At the end of the kinase reaction, a 20 uL luciferase-luciferin mix is added and the chemiluminescent signal is read using a Wallac Victor^2 reader. The luciferase-luciferin mix consists of 50 mM HEPES, pH 7.8, 8.5 ug/mL oxalic acid (pH 7.8), 5 (or 50) mM DTT, 0.4% Triton X-100, 0.25 mg/mL coenzyme A, 63 uM AMP, 28 ug/mL luciferin and 40,000 units of light/mL luciferase. For the LCCA assays, total ATP consumption has been standardized to 25-45% and the IC50 values correlates well with those determined by radiometric assays.
(§4) AlphaScreen technology is a proximity assay which utilizes the increase in fluorescent signal occurring when donor and acceptor beads are close in proximity. Biotinylated poly(Glu,Tyr) 4:1 is used as the kinase substrate, in conjunction with streptavidin-coated donor beads and anti-phosphortyrosine antibody PY100-coated acceptor beads. Upon phosphorylation, the peptide substrate can bind to both donor and acceptor beads giving rise to an increase in fluorescence. Compounds, ATP, biotinylated poly(Glu, Tyr) and kinases are mixed in a volume of 20 uL for 1 hr at ambient temperature using Greiner 384-well white clear bottom medium binding plates. Following incubation a 10 uL solution containing […] AlphaScreen beads, 75 mM Hepes, pH 7.4, 300 mM NaCl, 120 mM EDTA, 0.3% BSA and 0.03% Tween-20 is added to each well. After 2-16 hr incubation of the beads, plates are read in a Perkin Elmer AlphaQuest reader. The IC50 values correlates well with those of radiometric assays.

c-Kit = c-Kit (Homo sapiens, UniProt P10721); experiment: c-Kit biochemical assay (AlphaScreen)
Sequence of c-Kit (P10721 26-976): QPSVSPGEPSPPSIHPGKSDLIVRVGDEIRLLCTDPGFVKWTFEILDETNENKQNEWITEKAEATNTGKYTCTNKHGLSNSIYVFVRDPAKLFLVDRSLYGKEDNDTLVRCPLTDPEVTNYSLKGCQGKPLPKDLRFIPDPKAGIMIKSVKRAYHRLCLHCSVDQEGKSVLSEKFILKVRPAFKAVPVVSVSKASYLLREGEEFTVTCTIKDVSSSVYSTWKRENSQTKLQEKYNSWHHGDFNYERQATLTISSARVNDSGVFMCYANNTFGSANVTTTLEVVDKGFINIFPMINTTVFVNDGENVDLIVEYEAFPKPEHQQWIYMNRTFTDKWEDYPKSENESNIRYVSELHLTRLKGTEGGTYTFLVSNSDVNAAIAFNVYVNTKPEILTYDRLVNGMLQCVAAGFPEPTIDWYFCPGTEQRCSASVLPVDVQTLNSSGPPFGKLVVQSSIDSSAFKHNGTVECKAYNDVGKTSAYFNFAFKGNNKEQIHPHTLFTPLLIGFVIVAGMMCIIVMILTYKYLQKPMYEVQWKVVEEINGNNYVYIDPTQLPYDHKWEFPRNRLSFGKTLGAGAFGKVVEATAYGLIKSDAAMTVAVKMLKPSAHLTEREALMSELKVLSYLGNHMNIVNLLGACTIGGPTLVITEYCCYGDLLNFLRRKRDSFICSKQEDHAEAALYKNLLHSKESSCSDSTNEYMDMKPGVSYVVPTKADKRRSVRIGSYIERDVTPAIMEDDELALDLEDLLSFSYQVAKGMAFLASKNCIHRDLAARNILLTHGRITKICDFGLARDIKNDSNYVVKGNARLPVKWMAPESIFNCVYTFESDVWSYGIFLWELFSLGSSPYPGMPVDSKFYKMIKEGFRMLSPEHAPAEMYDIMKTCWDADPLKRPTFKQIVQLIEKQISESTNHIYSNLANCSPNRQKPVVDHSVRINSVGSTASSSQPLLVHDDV
Text: as §4
c-Kit biochemical activity was assessed using AlphaScreen™ (Perkin Elmer) technology, described above. Test compounds, ATP, biotinylated poly(Glu, Tyr) and c-Kit kinase were combined in a volume of 20 μL in a 384-well white, medium binding microtiter plate (Greiner). Reaction mixtures were incubated for 1 hr at ambient temperature. Reactions were quenched by addition of 10 uL of […] AlphaScreen bead suspension containing 75 mM Hepes, pH 7.4, 300 mM NaCl, 120 mM EDTA, 0.3% BSA and 0.03% Tween-20. After 16 hr incubation at ambient temperature plates were read using an AlphaQuest reader (Perkin Elmer).

flt-3 = target: T1, flt-3 (Homo sapiens, UniProt P36888); experiment: flt-3 Luciferase-Coupled Chemiluminescent Kinase assay (LCCA); format: biochemical
T1 construct: baculovirus expressed human Flt-3 kinase domain R571-S993
T1 sequence (P36888 571-993): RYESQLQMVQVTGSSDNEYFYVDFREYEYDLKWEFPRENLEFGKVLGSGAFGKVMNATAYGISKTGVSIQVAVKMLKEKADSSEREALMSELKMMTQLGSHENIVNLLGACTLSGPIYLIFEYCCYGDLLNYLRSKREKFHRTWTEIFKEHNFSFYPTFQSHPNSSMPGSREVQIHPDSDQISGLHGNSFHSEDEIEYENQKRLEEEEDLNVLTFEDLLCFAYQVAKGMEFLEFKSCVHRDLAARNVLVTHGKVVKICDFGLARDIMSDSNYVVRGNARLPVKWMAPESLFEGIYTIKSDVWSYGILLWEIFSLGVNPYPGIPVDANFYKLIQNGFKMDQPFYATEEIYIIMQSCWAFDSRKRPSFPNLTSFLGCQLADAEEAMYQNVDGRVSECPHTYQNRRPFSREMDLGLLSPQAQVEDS
Protocol: as §3
Flt-3 biochemical activity was assessed using a Luciferase-Coupled Chemiluminescent Kinase assay (LCCA) format. Kinase activity was measured as the percent ATP remaining following the kinase reaction. Remaining ATP was detected by luciferase-luciferin-coupled chemiluminescence. Specifically, the reaction was initiated by mixing test compounds, 5 μM ATP, 3 μM poly-EY and 5 nM Flt-3 (baculovirus expressed human Flt-3 kinase domain R571-S993) in a 20 uL assay buffer (20 mM Tris-HCL pH7.5, 10 mM MgCl2, 0.01% Triton X-100, 1 mM DTT, 2 mM MnCl2). The mixture is incubated at ambient temperature for 3 hours after which 20 uL luciferase-luciferin mix is added and the chemiluminescent signal read using a Wallac Victor^2 reader. The luciferase-luciferin mix consists of 50 mM HEPES, pH 7.8, 8.5 ug/mL oxalic acid (pH 7.8), 5 (or 50) mM DTT, 0.4% Triton X-100, 0.25 mg/mL coenzyme A, 63 uM AMP, 28 ug/mL luciferin and 40,000 units of light/mL luciferase.

EphB4 = target: T2, EphB4 (Homo sapiens, UniProt P54760); experiment: EphB4 kinase inhibition assay; format: biochemical
T2 sequence (P54760 16-987): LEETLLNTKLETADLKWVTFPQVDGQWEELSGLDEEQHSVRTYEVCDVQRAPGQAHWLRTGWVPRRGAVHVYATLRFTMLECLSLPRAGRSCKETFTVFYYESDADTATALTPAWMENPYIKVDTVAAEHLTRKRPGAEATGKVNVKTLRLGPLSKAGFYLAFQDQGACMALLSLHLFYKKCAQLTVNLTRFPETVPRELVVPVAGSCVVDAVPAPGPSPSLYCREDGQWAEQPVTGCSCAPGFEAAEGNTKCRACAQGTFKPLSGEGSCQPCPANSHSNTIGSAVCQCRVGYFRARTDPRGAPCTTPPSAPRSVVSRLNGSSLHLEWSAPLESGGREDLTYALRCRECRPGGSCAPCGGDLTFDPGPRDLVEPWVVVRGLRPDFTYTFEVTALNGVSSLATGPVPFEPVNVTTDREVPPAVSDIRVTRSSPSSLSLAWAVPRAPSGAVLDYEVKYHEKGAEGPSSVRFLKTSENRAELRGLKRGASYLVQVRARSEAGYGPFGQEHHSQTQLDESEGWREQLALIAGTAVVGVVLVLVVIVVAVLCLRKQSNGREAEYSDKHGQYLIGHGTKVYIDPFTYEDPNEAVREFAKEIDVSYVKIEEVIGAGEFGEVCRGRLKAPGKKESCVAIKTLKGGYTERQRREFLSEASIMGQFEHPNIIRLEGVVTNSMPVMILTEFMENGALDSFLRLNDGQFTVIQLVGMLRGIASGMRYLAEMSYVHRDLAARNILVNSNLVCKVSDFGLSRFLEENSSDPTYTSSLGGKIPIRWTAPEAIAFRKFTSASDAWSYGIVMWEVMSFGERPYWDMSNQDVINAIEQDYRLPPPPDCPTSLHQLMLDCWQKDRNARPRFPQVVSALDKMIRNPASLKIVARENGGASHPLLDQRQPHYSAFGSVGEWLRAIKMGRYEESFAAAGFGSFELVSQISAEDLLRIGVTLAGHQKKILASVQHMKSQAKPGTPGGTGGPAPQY
Protocol: as §1, §2, §3, §4

Sequence of EGFR (P00533 25-1210, species assumed): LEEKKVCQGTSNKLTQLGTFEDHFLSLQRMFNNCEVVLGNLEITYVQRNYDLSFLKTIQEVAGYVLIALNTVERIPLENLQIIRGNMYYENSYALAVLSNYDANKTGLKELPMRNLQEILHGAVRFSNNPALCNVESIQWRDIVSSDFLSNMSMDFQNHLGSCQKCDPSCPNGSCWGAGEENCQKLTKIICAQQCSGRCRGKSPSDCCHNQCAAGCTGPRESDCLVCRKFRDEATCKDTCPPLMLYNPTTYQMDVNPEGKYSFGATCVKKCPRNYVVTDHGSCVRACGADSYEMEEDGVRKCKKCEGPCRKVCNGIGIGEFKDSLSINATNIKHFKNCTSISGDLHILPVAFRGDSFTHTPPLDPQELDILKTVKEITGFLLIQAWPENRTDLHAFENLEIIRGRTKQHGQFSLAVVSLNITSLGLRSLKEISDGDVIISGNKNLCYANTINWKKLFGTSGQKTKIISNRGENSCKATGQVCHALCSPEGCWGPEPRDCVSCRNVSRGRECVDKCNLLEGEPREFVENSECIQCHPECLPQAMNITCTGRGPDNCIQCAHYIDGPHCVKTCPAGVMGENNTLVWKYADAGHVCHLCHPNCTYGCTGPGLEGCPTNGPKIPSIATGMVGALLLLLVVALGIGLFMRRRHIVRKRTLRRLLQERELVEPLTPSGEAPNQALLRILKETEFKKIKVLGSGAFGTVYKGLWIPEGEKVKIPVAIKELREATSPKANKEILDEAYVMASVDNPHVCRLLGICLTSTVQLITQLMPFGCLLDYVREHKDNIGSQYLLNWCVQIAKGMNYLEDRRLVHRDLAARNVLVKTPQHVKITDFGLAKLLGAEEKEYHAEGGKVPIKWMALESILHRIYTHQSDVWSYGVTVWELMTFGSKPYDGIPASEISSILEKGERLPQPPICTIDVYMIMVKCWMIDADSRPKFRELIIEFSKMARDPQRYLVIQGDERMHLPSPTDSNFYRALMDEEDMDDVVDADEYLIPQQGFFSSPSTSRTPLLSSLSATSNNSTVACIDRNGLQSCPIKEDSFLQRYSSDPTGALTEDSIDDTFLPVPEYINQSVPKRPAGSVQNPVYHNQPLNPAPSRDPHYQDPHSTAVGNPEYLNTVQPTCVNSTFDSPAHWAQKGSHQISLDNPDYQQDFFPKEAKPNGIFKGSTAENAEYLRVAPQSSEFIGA

SMILES | IC50 (EGFR) [µM] | IC50 (c-Kit) [µM] | IC50 (flt-3) [µM] | IC50 (EphB4) [µM]
Oc1ccc(/C=C/c2cc(-c3ccccc3F)[nH]n2)cc1 [Entry 57, 4-{(E)-2-[5-(2-fluorophenyl)-1H-pyrazol-3-yl]ethenyl}phenol] | > 5 | 0.05 to 0.5 | 0.05 to 0.5 | > 5
COc1cc(/C=C/c2cc(-c3ccccc3)[nH]n2)ccc1O [Entry 55, 2-(methyloxy)-4-[(E)-2-(5-phenyl-1H-pyrazol-3-yl)ethenyl]phenol] | > 5 | 0.05 to 0.5 | 0.05 to 0.5 | > 5
COc1cc(/C=C/c2cc(/C=C/c3ccc(F)cc3)n[nH]2)ccc1O [Entry 44, 4-((E)-2-{3-[(E)-2-(4-fluorophenyl)ethenyl]-1H-pyrazol-5-yl}ethenyl)-2-(methyloxy)phenol] | > 5 | 0.05 to 0.5 | < 0.05 | > 5
Cc1ccc(F)cc1NC(=O)Nc1ccc(-c2cc(-c3ccc(N4CCN(C)CC4)cc3)[nH]n2)cc1 [Entry 53, N-(5-fluoro-2-methylphenyl)-N′-(4-{5-[4-(4-methylpiperazin-1-yl)phenyl]-1H-pyrazol-3-yl}phenyl)urea] | > 5 | 0.05 to 0.5 | 0.05 to 0.5 | > 5
CN1CCN(c2ccc3[nH]c(-c4cc(-c5ccc(NC(=O)Nc6cc(C(F)(F)F)cc(C(F)(F)F)c6)cc5)[nH]n4)nc3c2)CC1 [Entry 34, N-[3,5-bis(trifluoromethyl)phenyl]-N′-(4-{3-[5-(4-methylpiperazin-1-yl)-1H-benzimidazol-2-yl]-1H-pyrazol-5-yl}phenyl)urea] | > 5 | < 0.05 | < 0.05 | 0.5 to 5
COc1cc(/C=C/c2cc(/C=C/c3ccccc3)[nH]n2)ccc1O [Entry 37, 2-(methyloxy)-4-((E)-2-{5-[(E)-2-phenylethenyl]-1H-pyrazol-3-yl}ethenyl)phenol] | > 5 | < 0.05 | < 0.05 | 0.5 to 5
CCN1CCN(c2ccc3[nH]c(-c4cc(-c5ccc(NC(=O)Nc6cccc(C(F)(F)F)c6)cc5)[nH]n4)nc3c2)CC1 [Entry 4, N-(4-{3-[5-(4-ethylpiperazin-1-yl)-1H-benzimidazol-2-yl]-1H-pyrazol-5-yl}phenyl)-N′-[3-(trifluoromethyl)phenyl]urea] | > 5 | < 0.05 | < 0.05 | 0.5 to 5
CN1CCN(c2ccc3[nH]c(-c4cc(-c5ccc(NC(=O)Nc6cccc(C(F)(F)F)c6)cc5)[nH]n4)nc3c2)CC1 [Entry 15, N-(4-{3-[5-(4-methylpiperazin-1-yl)-1H-benzimidazol-2-yl]-1H-pyrazol-5-yl}phenyl)-N′-[3-(trifluoromethyl)phenyl]urea] | > 5 | < 0.05 | < 0.05 | 0.5 to 5
CN1CCN(c2ccc3[nH]c(-c4cc(-c5ccc(NC(=O)Nc6cc(F)cc(F)c6)cc5)[nH]n4)nc3c2)CC1 [Entry 19, N-(3,5-difluorophenyl)-N′-(4-{3-[5-(4-methylpiperazin-1-yl)-1H-benzimidazol-2-yl]-1H-pyrazol-5-yl}phenyl)urea] | > 5 | < 0.05 | < 0.05 | > 5
CCN1CCN(c2ccc3[nH]c(-c4cc(-c5ccc(NC(=O)Nc6ccc(Cl)c(C(F)(F)F)c6)cc5)[nH]n4)nc3c2)CC1 [Entry 2, N-[4-chloro-3-(trifluoromethyl)phenyl]-N′-(4-{3-[5-(4-ethylpiperazin-1-yl)-1H-benzimidazol-2-yl]-1H-pyrazol-5-yl}phenyl)urea] | > 5 | < 0.05 | < 0.05 | > 5
CN1CCN(c2ccc3[nH]c(-c4cc(-c5ccc(NC(=O)Nc6cccc(Cl)c6)cc5)[nH]n4)nc3c2)CC1 [Entry 10, N-(3-chlorophenyl)-N′-(4-{3-[5-(4-methylpiperazin-1-yl)-1H-benzimidazol-2-yl]-1H-pyrazol-yl}phenyl)urea] |  | < 0.05 | < 0.05 | > 5
O=C(Nc1ccccc1)Nc1ccc(-c2cc(-c3nc4ccccc4[nH]3)n[nH]2)cc1 [Entry 33, N-{4-[3-(1H-benzimidazol-2-yl)-1H-pyrazol-5-yl]phenyl}-N′-phenylurea] | > 5 | < 0.05 |  | > 5
